# Results from PubChem BioAssay AID248 (DTP/NCI, 2004).
# “And” between values parts separate entries of the source, which are not always exact repeats. Equal values may be shown once. Inconclusive results and toxic doses are left out.
# Tested on: L1210 leukemia ip in BDF1 mice, survival T/C
# Experiment: NCI In Vivo Anticancer Drug Screen. Data for tumor model L1210 Leukemia (intraperitoneal) in B6D2F1 (BDF1) mice
# Settings: endpoint: mean survival time, higher = longer survival
# Method in brief: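 Transplantable tumor model; survival measured in treated vs vehicle control mice. Value = treated/control.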
# [1] = dose: 25.0 mg/kg/injection, schedule: Q01DX009 (ip), vehicle: saline
# [2] = dose: 50.0 mg/kg/injection, schedule: Q01DX009 (ip), vehicle: saline
# [3] = dose: 100.0 mg/kg/injection, schedule: Q01DX009 (ip), vehicle: saline
# [4] = dose: 100.0 mg/kg/injection, schedule: Q01DX001 (ip), vehicle: saline
# [5] = dose: 200.0 mg/kg/injection, schedule: Q01DX001 (ip), vehicle: saline
# [6] = dose: 400.0 mg/kg/injection, schedule: Q01DX001 (ip), vehicle: saline
# [7] = dose: 100.0 mg/kg/injection, schedule: Q01DX009 (ip), vehicle: Klucel (hydroxypropylcellulose) (HPC)
# [8] = dose: 200.0 mg/kg/injection, schedule: Q01DX009 (ip), vehicle: Klucel (hydroxypropylcellulose) (HPC)
# [9] = dose: 400.0 mg/kg/injection, schedule: Q01DX009 (ip), vehicle: Klucel (hydroxypropylcellulose) (HPC)
# [10] = dose: 100.0 mg/kg/injection, schedule: Q04DX003 (ip), vehicle: saline with Tween-80
# [11] = dose: 200.0 mg/kg/injection, schedule: Q04DX003 (ip), vehicle: saline with Tween-80
# [12] = dose: 400.0 mg/kg/injection, schedule: Q04DX003 (ip), vehicle: saline with Tween-80
# [13] = dose: 100.0 mg/kg/injection, schedule: Q04DX002 (ip), vehicle: Klucel (hydroxypropylcellulose) (HPC)
# [14] = dose: 200.0 mg/kg/injection, schedule: Q04DX002 (ip), vehicle: Klucel (hydroxypropylcellulose) (HPC)
# [15] = dose: 400.0 mg/kg/injection, schedule: Q04DX002 (ip), vehicle: Klucel (hydroxypropylcellulose) (HPC)
# [16] = dose: 100.0 mg/kg/injection, schedule: Q01DX001 (ip), vehicle: carboxymethylcellulose (CMC)
# [17] = dose: 200.0 mg/kg/injection, schedule: Q01DX001 (ip), vehicle: carboxymethylcellulose (CMC)
# [18] = dose: 400.0 mg/kg/injection, schedule: Q01DX001 (ip), vehicle: carboxymethylcellulose (CMC)
structure (smiles),measurement,setting,value
NCCCCS(=O)(=O)Nc1ccc(Nc2c3ccccc3nc3cc([N+](=O)[O-])ccc23)cc1,T/C,"dose: 2.1 mg/kg/injection, schedule: Q01DX009 (ip), vehicle: saline",117 % of control
same,T/C,"dose: 3.1 mg/kg/injection, schedule: Q01DX009 (ip), vehicle: saline",121 % of control
same,T/C,"dose: 16.0 mg/kg/injection, schedule: Q01DX009 (ip), vehicle: saline",123 % of control
same,T/C,[1],158 % of control
same,T/C,"dose: 25.0 mg/kg/injection, schedule: Q01DX009 (sc), vehicle: saline",111 % of control
same,T/C,[2],228 % of control
same,T/C,"dose: 50.0 mg/kg/injection, schedule: Q01DX009 (sc), vehicle: saline",118 % of control
same,T/C,[3],266 % of control
same,T/C,"dose: 100.0 mg/kg/injection, schedule: Q01DX009 (sc), vehicle: saline",175 % of control
same,T/C,"dose: 200.0 mg/kg/injection, schedule: Q01DX009 (sc), vehicle: saline",163 % of control
CC(C)(C)c1cc(OCC2CO2)c(C(C)(C)C)cc1OCC1CO1 (stereo not given),T/C,[4],101 % of control
same,T/C,[5],101 % of control
same,T/C,[6],92 % of control
O=C(Nc1ccccc1O)c1ccc([N+](=O)[O-])cc1,T/C,[7],100 % of control
same,T/C,[8],91 % of control
same,T/C,[9],93 % of control
O=c1[nH]cnc2c1ncn2C1OCC(O)C(O)C1O (stereo not given),T/C,"dose: 50.0 mg/kg/injection, schedule: Q01DX001 (ip), vehicle: saline",105 % of control
same,T/C,[4],101 % of control and 105 % of control
same,T/C,[5],119 % of control and 109 % of control
same,T/C,[6],103 % of control
Clc1ccccc1-c1ccc2c(Cl)ccnc2c1,T/C,[4],95 % of control
same,T/C,[5],95 % of control
same,T/C,[6],91 % of control
O=C(O)/C=C\c1cccc([N+](=O)[O-])c1,T/C,[10],92 % of control
same,T/C,[11],93 % of control
same,T/C,[12],92 % of control
O=C1CCC(=O)N1c1ccccc1Cl,T/C,"dose: 87.5 mg/kg/injection, schedule: Q01DX001 (ip), vehicle: Klucel (hydroxypropylcellulose) (HPC)",102 % of control
same,T/C,"dose: 175.0 mg/kg/injection, schedule: Q01DX001 (ip), vehicle: Klucel (hydroxypropylcellulose) (HPC)",106 % of control
same,T/C,"dose: 350.0 mg/kg/injection, schedule: Q01DX001 (ip), vehicle: Klucel (hydroxypropylcellulose) (HPC)",98 % of control
CCCC1C/C(=C\NC(N)=O)C(=O)O1 (stereo not given),T/C,"dose: 100.0 mg/kg/injection, schedule: Q01DX005 (ip), vehicle: saline with Tween-80",100 % of control
same,T/C,[10],104 % of control
same,T/C,"dose: 200.0 mg/kg/injection, schedule: Q01DX005 (ip), vehicle: saline with Tween-80",100 % of control
same,T/C,[11],96 % of control
same,T/C,"dose: 400.0 mg/kg/injection, schedule: Q01DX005 (ip), vehicle: saline with Tween-80",112 % of control
same,T/C,[12],101 % of control
COC(=O)C1OCOC2C(COS(=O)(=O)c3ccc(C)cc3)OCOC12 (stereo not given),T/C,"dose: 50.0 mg/kg/injection, schedule: Q04DX002 (ip), vehicle: Klucel (hydroxypropylcellulose) (HPC)",100 % of control
same,T/C,[13],98 % of control and 111 % of control
same,T/C,[14],95 % of control and 101 % of control
same,T/C,[15],101 % of control
COc1ccc(C(=O)c2cc(Br)ccc2O)cc1,T/C,[16],98 % of control
same,T/C,[17],100 % of control
same,T/C,[18],98 % of control
O=C(/C=C/c1ccccc1)c1ccc2c(c1)OCO2,T/C,"dose: 100.0 mg/kg/injection, schedule: Q04DX003 (ip), vehicle: water",98 % of control
same,T/C,"dose: 200.0 mg/kg/injection, schedule: Q04DX003 (ip), vehicle: water",96 % of control
same,T/C,"dose: 400.0 mg/kg/injection, schedule: Q04DX003 (ip), vehicle: water",94 % of control
O=C(C(c1ccccn1)=P(c1ccccc1)(c1ccccc1)c1ccccc1)c1ccc([N+](=O)[O-])cc1,T/C,"dose: 50.0 mg/kg/injection, schedule: Q01DX009 (ip), vehicle: Klucel (hydroxypropylcellulose) (HPC)",88 % of control
same,T/C,[7],91 % of control
same,T/C,[8],98 % of control
CC1(C)OC2COC(c3[nH]nc(C(N)=O)c3Br)C2O1 (stereo not given),T/C,"dose: 100.0 mg/kg/injection, schedule: Q01DX005 (ip), vehicle: saline",104 % of control
same,T/C,"dose: 200.0 mg/kg/injection, schedule: Q01DX005 (ip), vehicle: saline",96 % of control
CC(NC(=O)OC(C)(C)C)C(=O)O (stereo not given),T/C,[16],104 % of control
same,T/C,[17],104 % of control
same,T/C,[18],104 % of control
CCCCCCCCNc1ccccc1,T/C,[10],95 % of control
same,T/C,[11],106 % of control
same,T/C,[12],117 % of control
O=C(O)c1ccc(NC(=O)c2cccc(F)c2)cc1,T/C,[7],100 % of control
same,T/C,[8],108 % of control
same,T/C,[9],101 % of control
CCCCCCCCNC12CC3CC(CC(C3)C1)C2,T/C,"dose: 3.12 mg/kg/injection, schedule: Q01DX009 (ip), vehicle: saline",99 % of control
same,T/C,"dose: 6.25 mg/kg/injection, schedule: Q01DX009 (ip), vehicle: saline",89 % of control
same,T/C,"dose: 12.5 mg/kg/injection, schedule: Q01DX009 (ip), vehicle: saline",87 % of control
same,T/C,"dose: 12.5 mg/kg/injection, schedule: Q04DX003 (ip), vehicle: saline",110 % of control
same,T/C,[1],92 % of control
same,T/C,"dose: 25.0 mg/kg/injection, schedule: Q04DX003 (ip), vehicle: saline",109 % of control
Nc1ncnc2c1cnn2Cc1ccc(Cl)cc1,T/C,[2],100 % of control
same,T/C,[16],98 % of control and 103 % of control
same,T/C,[3],88 % of control
same,T/C,"dose: 100.0 mg/kg/injection, schedule: Q04DX003 (ip), vehicle: carboxymethylcellulose (CMC)",97 % of control
same,T/C,[17],93 % of control and 115 % of control
same,T/C,"dose: 200.0 mg/kg/injection, schedule: Q04DX003 (ip), vehicle: carboxymethylcellulose (CMC)",95 % of control
same,T/C,[18],96 % of control and 121 % of control
OCC1CC2CC(O)C1C2 (stereo not given),T/C,"dose: 75.0 mg/kg/injection, schedule: Q01DX001 (ip), vehicle: saline",100 % of control and 110 % of control
same,T/C,"dose: 150.0 mg/kg/injection, schedule: Q01DX001 (ip), vehicle: saline",108 % of control
COc1ccc(NC(=O)Oc2cccc(OC(=O)c3ccccc3)c2)cc1,T/C,"dose: 100.0 mg/kg/injection, schedule: Q01DX001 (ip), vehicle: Klucel (hydroxypropylcellulose) (HPC)",96 % of control
same,T/C,[7],104 % of control and 106 % of control
same,T/C,[13],93 % of control and 103 % of control and 106 % of control
same,T/C,"dose: 100.0 mg/kg/injection, schedule: Q04DX003 (ip), vehicle: Klucel (hydroxypropylcellulose) (HPC)",98 % of control
same,T/C,"dose: 200.0 mg/kg/injection, schedule: Q01DX001 (ip), vehicle: Klucel (hydroxypropylcellulose) (HPC)",93 % of control
same,T/C,[8],100 % of control and 103 % of control
same,T/C,[14],99 % of control and 100 % of control and 103 % of control
same,T/C,"dose: 200.0 mg/kg/injection, schedule: Q04DX003 (ip), vehicle: Klucel (hydroxypropylcellulose) (HPC)",98 % of control
same,T/C,"dose: 400.0 mg/kg/injection, schedule: Q01DX001 (ip), vehicle: Klucel (hydroxypropylcellulose) (HPC)",93 % of control
same,T/C,[9],97 % of control and 98 % of control
same,T/C,[15],93 % of control and 97 % of control and 99 % of control
same,T/C,"dose: 400.0 mg/kg/injection, schedule: Q04DX003 (ip), vehicle: Klucel (hydroxypropylcellulose) (HPC)",91 % of control
N#CC(O)c1ccccc1 (stereo not given),T/C,"dose: 2.5 mg/kg/injection, schedule: Q01DX009 (ip), vehicle: acetone",101 % of control
same,T/C,"dose: 5.0 mg/kg/injection, schedule: Q01DX001 (ip), vehicle: carboxymethylcellulose (CMC)",95 % of control
same,T/C,"dose: 5.0 mg/kg/injection, schedule: Q01DX009 (ip), vehicle: acetone",102 % of control
same,T/C,"dose: 10.0 mg/kg/injection, schedule: Q01DX001 (ip), vehicle: carboxymethylcellulose (CMC)",91 % of control
same,T/C,"dose: 10.0 mg/kg/injection, schedule: Q01DX009 (ip), vehicle: acetone",104 % of control
O=C(O)C(CCO)c1ccccc1 (stereo not given),T/C,"dose: 100.0 mg/kg/injection, schedule: Q04DX002 (ip), vehicle: saline with Tween-80",95 % of control
same,T/C,"dose: 200.0 mg/kg/injection, schedule: Q04DX002 (ip), vehicle: saline with Tween-80",100 % of control
same,T/C,"dose: 400.0 mg/kg/injection, schedule: Q04DX002 (ip), vehicle: saline with Tween-80",95 % of control
CNC(=O)Oc1ccc(Nc2ccccc2)cc1,T/C,[7],97 % of control and 104 % of control
same,T/C,[13],105 % of control and 88 % of control
same,T/C,[8],100 % of control and 104 % of control
same,T/C,[14],97 % of control and 98 % of control
same,T/C,[9],95 % of control and 104 % of control
same,T/C,[15],93 % of control and 108 % of control
